Consider 1 molecule from patent US20200297684A1, “TOPICAL COMPOSITIONS AND METHODS FOR TREATING ACNE VULGARIS” (Bausch Health Ireland Limited, priority 2019, published 2020).

The conditions of data set [1]: equal parts of 0.05% tretinoin gel and gel containing 5% BPO and clindamycin phosphate; 32° C. for 7 hours; cited from earlier work.
Data set [2] in a line: Chemical stability of tretinoin in an admixture with benzoyl peroxide at room condition and 32° C., under room light. Type of data set: physicochemical. To be noted: for Assay (% label claim), 32° C., Room Light / Assay (% label claim), Room Condition: tretinoin in admixture with benzoyl peroxide. As to the method: The chemical stability of tretinoin in an admixture with benzoyl peroxide of the present invention at room temperature and 32 degrees C., under room light condition is shown in Table 1.
More than 97 and 96 percent of treinoin in the original admixture of the present invention remains after 24 hours at room condition and 32° C., under room light, respectively. Such stability ensures that the therapeutic efficacy of tretinoin is not diminished between once-a-day applications.

Where [3] appears, read: time 0 hr, replicates top/middle/bottom.

The structures appear in SMILES notation. Where “and” joins values, the source holds several entries; their conditions need not be identical. Equal entries are not always repeated.

As for `CC1=C(/C=C/C(C)=C/C=C/C(C)=C/C(=O)O)C(C)(C)CCC1` [Tretinoin, tretinoin], in data set [1], the “stability of tretinoin in the mixture” value is recorded as “stable”. Further, the “time for which tretinoin in the admixture is chemically stable” value in data set [2] (admixture of tretinoin and benzoyl peroxide compositions, even at 32° C. under room light condition) is “at least 24 hours”. Besides, the “percent of tretinoin in the original admixture remaining” value was above 96% in data set [2] (after 24 hours at 32° C., under room light) and “More than 97%” in data set [2] (after 24 hours at room condition). The “Assay (% label claim), 32° C., Room Light” value was 98.8 % label claim and 97.1 % label claim and 98.3 % label claim in data set [2] (setting [3]); 98.5 % label claim and 97.1 % label claim in data set [2] (time 1 hr); 98.6 % label claim and 98.2 % label claim in data set [2] (time 4 hr); 98.9 % label claim and 97.0 % label claim in data set [2] (time 12 hr); 96.6 % label claim and 97.8 % label claim in data set [2] (time 24 hr). In addition, the “Assay (% label claim), Room Condition” value in data set [2] (setting [3]) is 98.8 % label claim and 97.1 % label claim and 98.3 % label claim; in data set [2] (time 1 hr), 96.8 % label claim and 97.2 % label claim; in data set [2] (time 3 hr), 97.8 % label claim and 97.5 % label claim; in data set [2] (time 5 hr), 97.0 % label claim and 97.3 % label claim; in data set [2] (time 8 hr) it was 99.5 % label claim; in data set [2] (time 12 hr) it was 97.3 % label claim and 97.8 % label claim. The “Assay (% label claim), Room Condition” value in data set [2] (time 24 hr) is 98.1 % label claim and 97.4 % label claim.
